# Measurements from patent publication US12629348B2, “Method and composition for treating osteoarthritis” (Vireo Systems, Inc., priority 2013, dated 2026).
# Key:
# [1] = Standard blood chemistry profile of OA canines for trial period; format: in vivo, canine; conditions: 36 mg/kg/day oral
# Experimental: The double-blind study was performed on a total of 30 adult canines of various breeds in five different private practice clinics. Owner consent was obtained prior to participation in the study. Each clinic was responsible for enrolling 6 canines into the study. Inclusion criteria for the study consisted of clinical assessment and radiograph confirmation of OA in at least one joint and a score of 22 or greater on the Helsinki chronic pain index (“HCPI”). Use of NSAIDs or other dietary supplements for OA were allowed, provided the current treatment regimens had not been altered for a period of at least three months. A randomized block design was used with canines assigned in a one to one ratio into either placebo (36 mg/kg/day maltose-dextran; Vireo Resources, Plattsmouth, NE) or Alpha-GEE (36 mg/kg/day; Vireo Resources, Plattsmouth, NE) treatment group. The block size was six canines, corresponding to the total number of canines enrolled from each clinic. Group assignments for each canine were blinded to both the owners and attending veterinarian until all the data was collected and reported. Both Alpha-GEE and placebo were provided in 400 mg capsules and owners were instructed on the proper method for daily oral administration of capsules to their canines and provided with the appropriate number of capsules for the duration of the 2-week study. Blood samples were taken at both the start and conclusion of the two-week trial period to monitor for changes in blood chemistry as well as potential changes in inflammatory markers as described below. Owners completed the HCPI prior to starting the study, one-week after starting the study, and a final time at the conclusion of the study at two-weeks.
# In addition to the standard blood chemistry profile, blood samples taken before and at the conclusion of the two-week trial period were analyzed for PGE2 and SAA. Blood samples were collected in heparin tubes for PGE2 and in serum collection tubes for SAA. Both plasma and serum samples were centrifuged at 2000×g for 10 minutes and the plasma and serum supernatants removed and frozen at […] until analyzed for PGE2 and SAA using enzyme-linked immunosorbent assays ([…]). Of the 30 canines enrolled, 8 were excluded from the blood analysis portion of the study due to sampling/storage issues resulting in a lack of a pre- or post-trial sample. As PGE2 is rapidly metabolized in plasma, measurement of PGE2 metabolites is the most reliable method for assessing plasma levels of PGE2. Plasma samples were analyzed for PGE2 using the bicycle PGE2 competitive EIA kit purchased from Cayman Chemical (Ann Arbor, MI). The assay converts PGE2 metabolites into a stable derivative that is measured using EIA. Samples (100 μl) were analyzed in triplicate and PGE2 concentrations determined by use of standard curve. For SAA measurements, a solid phase sandwich EIA kit (Tridelta Development Ltd, Maytooth, Co Kildare, Ireland) was used as described previously.
# serum amyloid A = assay: Serum amyloid A (solid phase sandwich EIA) in OA canines; format: in vivo, canine; conditions: 36 mg/kg/day oral
# Experimental: The double-blind study was performed on a total of 30 adult canines of various breeds in five different private practice clinics. Owner consent was obtained prior to participation in the study. Each clinic was responsible for enrolling 6 canines into the study. Inclusion criteria for the study consisted of clinical assessment and radiograph confirmation of OA in at least one joint and a score of 22 or greater on the Helsinki chronic pain index (“HCPI”). Use of NSAIDs or other dietary supplements for OA were allowed, provided the current treatment regimens had not been altered for a period of at least three months. […]
# In addition to the standard blood chemistry profile, blood samples taken before and at the conclusion of the two-week trial period were analyzed for PGE2 and SAA. […] Both plasma and serum samples were centrifuged at 2000×g for 10 minutes and the plasma and serum supernatants removed and frozen at […] until analyzed for PGE2 and SAA using enzyme-linked immunosorbent assays (“HA”). […] Plasma samples were analyzed for PGE2 using the bicycle PGE2 competitive EIA kit purchased from Cayman Chemical (Ann Arbor, MI). The assay converts PGE2 metabolites into a stable derivative that is measured using EIA. Samples (100 μl) were analyzed in triplicate and PGE2 concentrations determined by use of standard curve. […]
# [2] = system: cultured canine chondrocytes; assay: PGE2 release in cultured canine chondrocytes challenged with IL1b; format: cell-based; conditions: 100 μM, IL1b challenge, FIG. 3
# Experimental: The study involved the use of cultured canine chondrocytes (i.e., cells within the joint that are activated during OA). The canine chondrocytes were subjected to an inflammatory challenge in the form of cytokine Interleukin 1 beta (“IL1b”). The canine chondrocytes were then treated with various anti-inflammatory compounds including Alpha-GEE; glucosamine; a TNFα receptor antagonist; and a NSAID (Rimadyl). Alpha-GEE was administered in concentrations ranging from 10 μM to 1000 μM. The resulting effects of the various treatments on both PGE2 release and TNFα release were examined.
# Alpha-GEE, glucosamine, and Rimadyl were used in a concentration of 100 μM, while the TNFα inhibitor was used in a concentration of 1 μM. Based on all of the treatments examined (i.e., Alpha-GEE; glucosamine; NSAID (Rimadyl); and TNFα receptor antagonist), Alpha-GEE produced the most dramatic decrease in PGE2 at the early 4-hour time point. […] The reduction in PGE2 release at the early 4 hour time point was greater than that observed with the NSAID, Rimadyl, glucosamine, or TNFα receptor blocker. The maximal effect of Alpha-GEE on PGE2 release from chondrocytes was observed within 8 hours, where a 75% reduction in PGE2 release was observed.
substance,measurement,setting,value
ethyl (α-guanido-methyl) ethanoate [Alpha-GEE],"Creatinine, post-trial","[1]; mean ± SD after two weeks, pre-trial 1.2 ± 0.7, normal range 0.3-1.4",1.5 ± 0.7 mg/dL
same,"Total Protein, post-trial","[1]; mean ± SD after two weeks, pre-trial 6.6 ± 0.4, normal range 5.4-8.2",6.5 ± 0.4 g/dL
same,"BUN, post-trial","[1]; mean ± SD after two weeks, pre-trial 24 ± 22, normal range 7-25",24 ± 19 mg/dL
same,"ALT, post-trial","[1]; mean ± SD after two weeks, pre-trial 89 ± 99, normal range 10-118",53 ± 37 U/L
same,"Glucose, post-trial","[1]; mean ± SD after two weeks, pre-trial 102 ± 11, normal range 80-110",101 ± 11 mg/dL
same,"ALP, post-trial","[1]; mean ± SD after two weeks, pre-trial 110 ± 104, normal range 20-150",103 ± 131 U/L
same,change in post-trial blood chemistry profiles compared to pre-trial values,[1]; two-week trial,no significant changes
same,"Serum Amyloid A concentration, post-trial","serum amyloid A; mean ± SD after two weeks, pre-trial 673 ± 869, p < 0.05 compared to placebo (1483 ± 1653)",255 ± 221 ng/mL
same,SAA levels compared to placebo at the end of the study,"serum amyloid A; two-week trial, 36 mg/kg/day",significantly lower
same,reduction in PGE2 release from canine chondrocytes,[2]; 4 hours,approximately 60%
same,reduction in PGE2 release from canine chondrocytes (maximal effect),[2]; within 8 hours,75%
